Test system: HeLa cells
Experiment: In vitro efficacy of mFLuc mRNA-encapsulated lipid nanoparticles, luminescence
Type: cell-based
Conditions: 20 ng mFLuc-encapsulated LNP, 24 hours
Experimental: To determine the efficacy of mRNA-encapsulated lipid nanoparticles in vitro, screening was performed using lipid nanoparticles synthesized with various amine head groups.
The test was conducted by treating 20 ng of mFLuc (SEQ ID NO: 1)-encapsulated lipid nanoparticles into HeLa cells using each lipid nanoparticle synthesized with various amine headgroups (Compounds 1, 2, 4, and 5). The luminescence intensity was measured at 24 hours.

SMILES	Relative luminescence mean value	expression effect (luminescence intensity), in words
CCCCCC/C=C\COC(=O)CCCCCCCCN(CCCCCCCCC(=O)OC/C=C\CCCCCC)CCCN1CCN(CCCN(CCCCCCCCC(=O)OC/C=C\CCCCCC)CCCCCCCCC(=O)OC/C=C\CCCCCC)CC1 [Compound 4]	39970.75	
CCCCCC/C=C\COC(=O)CCCCCCCCN(CCCCCCCCC(=O)OC/C=C\CCCCCC)CCN1CCN(CCCCCCCCC(=O)OC/C=C\CCCCCC)CC1 [Compound 5]	1022327.75	highest expression effect
